Data from patent publication US20260207623A1, “USE OF ESTETROL IN HEPATICALLY IMPAIRED PATIENTS” (ESTETRA SRL, priority 2022, published 2026).
Entries after “also recorded” stand apart in the source; their conditions may differ.

What was measured:
Type in all cases: in vivo, human
post-menopausal women [1] = experiment: Example 2: patients leaving the study
Text: 3. Patients Leaving the Study

post-menopausal women [2] = experiment: Example 2: number of patients with endometrial biopsies
Protocol: If during the course of the trial, a double layer endometrial thickness≥15 mm was detected on TVUS and/or abnormal uterine bleeding (in the judgement of the gynecologist in light of the estrogen therapy) was reported by a non-hysterectomied person, they underwent an endometrial biopsy and was treated with progestin (10 mg dydrogesterone) QD until end of Week 11 in a sequential way (i.e., a 14 day progestin treatment period followed by a 14 day progestin treatment pause) in addition to the E4/placebo treatment. […] If an abnormal uterine bleeding occurred again after a first normal endometrial biopsy, a thorough gynaecological examination and a TVUS were performed. If necessary in the judgment of the gynecologist, a second endometrial biopsy was performed.
1. Number of Patients with Biopsies

post-menopausal women [3] = experiment: Example 2 dose-finding study: weekly severity of moderate to severe VMS; conditions: for LS adjusted mean change from baseline in weekly severity of moderate to severe VMS: week 12, ANCOVA
Text: A severity scoring system to define the different severity categories of VMS is commonly used in the technical field: • a score of mild (1) for a sensation of heat without sweating; • a score of moderate (2) for a sensation of heat with sweating/the subject is able to continue activity; and • a score of severe (3) for a sensation of heat with sweating/which causes cessation of activity.
In addition, a severity score of zero is attributed to the patients who have experienced a 100% VMS relief during a given week. From these score records, the VMS severity at baseline is typically calculated by taking into account only moderate and severe VMS, such that the total number of moderate VMS during the 7 days of the baseline week is multiplied by 2 and added to the total number of severe VMS during the 7 days of the baseline week multiplied by 3. This total is then divided by the total number of moderate and severe VMS during the baseline week.
The severity at weeks 4 and 12 is calculated using the following formula for each of these weeks: • the number of mild VMS during 7 days multiplied by 1; • the number of moderate VMS during 7 days multiplied by 2; • the number of severe VMS during 7 days multiplied by 3; and adding the 3 resulting numbers together before dividing this total by the total number of mild, moderate and severe VMS during the 7 days of the week.
All treatments (Estetrol, hereinafter E4 as monohydrate, [2.5 mg, 5 mg, 10 mg, 15 mg] capsule) were administered once daily (QD) per os for at least 12 consecutive weeks until the last biological assessments (Day 91 maximum) had been performed.
In order to better analyse the data recorded in this study, treatment groups have been compared using an ANCOVA (analysis of covariance) with respect to the change in severity of moderate to severe VMS from baseline to mild, moderate and severe VMS at week 4 and week 12 for each active treatment versus placebo. For women who experienced 100% VMS relief at week 4 and/or week 12, a value of zero was attributed. The ANCOVA model includes treatment (“trt1”) as a fixed effect and baseline (“base”) as a covariate.

fasting glucose = experiment: Example 3: fasting glucose, change from baseline to week 12

C[C@]12CC[C@@H]3c4ccc(O)cc4CC[C@H]3[C@@H]1[C@@H](O)[C@@H](O)[C@@H]2O [E4 monohydrate, estetrol monohydrate]
Number of patients leaving the study (post-menopausal women [1]; 2.5 mg daily): 9
Number of patients leaving the study (post-menopausal women [1]; 5 mg daily): 11
Number of patients leaving the study (post-menopausal women [1]; 10 mg daily): 15
Number of patients leaving the study (post-menopausal women [1]; 15 mg daily): 8
Number of patients with biopsies (post-menopausal women [2]; 2.5 mg daily): 4
Number of patients with biopsies (post-menopausal women [2]; 5 mg daily): 5
Number of patients with biopsies (post-menopausal women [2]; 10 mg daily): 11
Number of patients with biopsies (post-menopausal women [2]; 15 mg daily): 9
requirements for biopsies (post-menopausal women [2]; 15 mg per day group compared with 10 mg per day group): less requirements for biopsies
Mean change from baseline in weekly severity of moderate to severe VMS (post-menopausal women [3]; 2.5 mg QD, week 0): 0
Mean relative change (% from baseline) in weekly severity of moderate to severe VMS (post-menopausal women [3]; 2.5 mg QD, week 0): 0%
Mean relative change (% from baseline) in weekly severity of moderate to severe VMS (post-menopausal women [3]; 2.5 mg QD, week 1): −7%
Mean relative change (% from baseline) in weekly severity of moderate to severe VMS (post-menopausal women [3]; 2.5 mg QD, week 2): −9%
Mean relative change (% from baseline) in weekly severity of moderate to severe VMS (post-menopausal women [3]; 2.5 mg QD, week 3): −14%
Mean relative change (% from baseline) in weekly severity of moderate to severe VMS (post-menopausal women [3]; 2.5 mg QD, week 4): −15%
Mean relative change (% from baseline) in weekly severity of moderate to severe VMS (post-menopausal women [3]; 2.5 mg QD, week 5): −17%
Mean relative change (% from baseline) in weekly severity of moderate to severe VMS (post-menopausal women [3]; 2.5 mg QD, week 6): −22%
Mean relative change (% from baseline) in weekly severity of moderate to severe VMS (post-menopausal women [3]; 2.5 mg QD, week 7): −20%
Mean relative change (% from baseline) in weekly severity of moderate to severe VMS (post-menopausal women [3]; 2.5 mg QD, week 8): −24%
Mean relative change (% from baseline) in weekly severity of moderate to severe VMS (post-menopausal women [3]; 2.5 mg QD, week 9): −24%
Mean relative change (% from baseline) in weekly severity of moderate to severe VMS (post-menopausal women [3]; 2.5 mg QD, week 10): −26%
Mean relative change (% from baseline) in weekly severity of moderate to severe VMS (post-menopausal women [3]; 2.5 mg QD, week 11): −25%
Mean relative change (% from baseline) in weekly severity of moderate to severe VMS (post-menopausal women [3]; 2.5 mg QD, week 12): −28%
Mean change from baseline in weekly severity of moderate to severe VMS (post-menopausal women [3]; 5 mg QD, week 0): 0
Mean relative change (% from baseline) in weekly severity of moderate to severe VMS (post-menopausal women [3]; 5 mg QD, week 0): 0%
Mean relative change (% from baseline) in weekly severity of moderate to severe VMS (post-menopausal women [3]; 5 mg QD, week 1): −4%
Mean relative change (% from baseline) in weekly severity of moderate to severe VMS (post-menopausal women [3]; 5 mg QD, week 2): −5%
Mean relative change (% from baseline) in weekly severity of moderate to severe VMS (post-menopausal women [3]; 5 mg QD, week 3): −7%
Mean relative change (% from baseline) in weekly severity of moderate to severe VMS (post-menopausal women [3]; 5 mg QD, week 4): −10%
Mean relative change (% from baseline) in weekly severity of moderate to severe VMS (post-menopausal women [3]; 5 mg QD, week 5): −7%
Mean relative change (% from baseline) in weekly severity of moderate to severe VMS (post-menopausal women [3]; 5 mg QD, week 6): −14%
Mean relative change (% from baseline) in weekly severity of moderate to severe VMS (post-menopausal women [3]; 5 mg QD, week 7): −12%
Mean relative change (% from baseline) in weekly severity of moderate to severe VMS (post-menopausal women [3]; 5 mg QD, week 8): −14%
Mean relative change (% from baseline) in weekly severity of moderate to severe VMS (post-menopausal women [3]; 5 mg QD, week 9): −14%
Mean relative change (% from baseline) in weekly severity of moderate to severe VMS (post-menopausal women [3]; 5 mg QD, week 10): −15%
Mean relative change (% from baseline) in weekly severity of moderate to severe VMS (post-menopausal women [3]; 5 mg QD, week 11): −18%
Mean relative change (% from baseline) in weekly severity of moderate to severe VMS (post-menopausal women [3]; 5 mg QD, week 12): −17%
Mean change from baseline in weekly severity of moderate to severe VMS (post-menopausal women [3]; 10 mg QD, week 0): 0
Mean relative change (% from baseline) in weekly severity of moderate to severe VMS (post-menopausal women [3]; 10 mg QD, week 0): 0%
Mean relative change (% from baseline) in weekly severity of moderate to severe VMS (post-menopausal women [3]; 10 mg QD, week 1): −8%
Mean relative change (% from baseline) in weekly severity of moderate to severe VMS (post-menopausal women [3]; 10 mg QD, week 2): −13%
Mean relative change (% from baseline) in weekly severity of moderate to severe VMS (post-menopausal women [3]; 10 mg QD, week 3): −17%
Mean relative change (% from baseline) in weekly severity of moderate to severe VMS (post-menopausal women [3]; 10 mg QD, week 5): −21%
Mean relative change (% from baseline) in weekly severity of moderate to severe VMS (post-menopausal women [3]; 10 mg QD, week 6): −26%
Mean relative change (% from baseline) in weekly severity of moderate to severe VMS (post-menopausal women [3]; 10 mg QD, week 7): −27%
Mean relative change (% from baseline) in weekly severity of moderate to severe VMS (post-menopausal women [3]; 10 mg QD, week 8): −28%
Mean relative change (% from baseline) in weekly severity of moderate to severe VMS (post-menopausal women [3]; 10 mg QD, week 9): −28%
Mean relative change (% from baseline) in weekly severity of moderate to severe VMS (post-menopausal women [3]; 10 mg QD, week 10): −29%
Mean relative change (% from baseline) in weekly severity of moderate to severe VMS (post-menopausal women [3]; 10 mg QD, week 11): −25%
Mean relative change (% from baseline) in weekly severity of moderate to severe VMS (post-menopausal women [3]; 10 mg QD, week 12): −28%
LS adjusted mean change from baseline in weekly severity of moderate to severe VMS (post-menopausal women [3]; 10 mg QD): −0.6934
Mean change from baseline in weekly severity of moderate to severe VMS (post-menopausal women [3]; 15 mg QD, week 0): 0
Mean relative change (% from baseline) in weekly severity of moderate to severe VMS (post-menopausal women [3]; 15 mg QD, week 0): 0%
Mean relative change (% from baseline) in weekly severity of moderate to severe VMS (post-menopausal women [3]; 15 mg QD, week 1): −3%
Mean relative change (% from baseline) in weekly severity of moderate to severe VMS (post-menopausal women [3]; 15 mg QD, week 2): −12%
Mean relative change (% from baseline) in weekly severity of moderate to severe VMS (post-menopausal women [3]; 15 mg QD, week 3): −20%
Mean relative change (% from baseline) in weekly severity of moderate to severe VMS (post-menopausal women [3]; 15 mg QD, week 4): −24%
Mean relative change (% from baseline) in weekly severity of moderate to severe VMS (post-menopausal women [3]; 15 mg QD, week 5): −31%
Mean relative change (% from baseline) in weekly severity of moderate to severe VMS (post-menopausal women [3]; 15 mg QD, week 6): −30%
Mean relative change (% from baseline) in weekly severity of moderate to severe VMS (post-menopausal women [3]; 15 mg QD, week 7): −34%
Mean relative change (% from baseline) in weekly severity of moderate to severe VMS (post-menopausal women [3]; 15 mg QD, week 8): −37%
Mean relative change (% from baseline) in weekly severity of moderate to severe VMS (post-menopausal women [3]; 15 mg QD, week 9): −38%
Mean relative change (% from baseline) in weekly severity of moderate to severe VMS (post-menopausal women [3]; 15 mg QD, week 10): −40%
Mean relative change (% from baseline) in weekly severity of moderate to severe VMS (post-menopausal women [3]; 15 mg QD, week 11): −42%
Mean relative change (% from baseline) in weekly severity of moderate to severe VMS (post-menopausal women [3]; 15 mg QD, week 12): −44%
LS adjusted mean change from baseline in weekly severity of moderate to severe VMS (post-menopausal women [3]; 15 mg QD): −1.042
fasting glucose levels (fasting glucose; 15 mg and 20 mg, after 12 weeks, monohydrate): decreased; also recorded: reduced
Fasting Glucose, mean (fasting glucose; 15 mg, Baseline): 5.156
Fasting Glucose, mean (fasting glucose; 15 mg, Week 12): 5.057
Fasting Glucose, mean (fasting glucose; 20 mg, Baseline): 5.177
Fasting Glucose, mean (fasting glucose; 20 mg, Week 12): 5.057
